Structures can show the parent of a compound that is named as a salt. Where two headings read alike, the source gives them in different places.
Legend:
[1] = biological target: T1, purified human platelet fibrinogen receptor (GPIIb/IIIa) (Homo sapiens, UniProt P05106+P08514); assay: Test (b): GPIIb/IIIa ELISA, inhibition of biotinylated fibrinogen binding; details: purified human platelet GPIIb/IIIa, ELISA
T1 construct: is isolated from human platelet lysates; from tissue
In short: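 Inhibition of biotinylated fibrinogen ([…]) binding to immobilised human platelet fibrinogen receptor, purified by KYGRGDS peptide affinity chromatography, was measured after 2 h at 30 °C. Readout: streptavidin–biotin-HRP colour with TMB at […]; value expressed as pIC50.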

[2] = biological target: T2, human, citrated, platelet-rich plasma (Homo sapiens, UniProt P05106+P08514); assay: Test (a): inhibition of ADP stimulated platelet aggregation (Born); type: cell-based; details: ADP induced aggregation of human platelet-rich plasma
T2 construct: aggregating human, citrated, platelet-rich plasma; endogenous in cells; host or cells: human platelets in citrated platelet-rich plasma
T2 sequence (P08514 32-887 limits assumed): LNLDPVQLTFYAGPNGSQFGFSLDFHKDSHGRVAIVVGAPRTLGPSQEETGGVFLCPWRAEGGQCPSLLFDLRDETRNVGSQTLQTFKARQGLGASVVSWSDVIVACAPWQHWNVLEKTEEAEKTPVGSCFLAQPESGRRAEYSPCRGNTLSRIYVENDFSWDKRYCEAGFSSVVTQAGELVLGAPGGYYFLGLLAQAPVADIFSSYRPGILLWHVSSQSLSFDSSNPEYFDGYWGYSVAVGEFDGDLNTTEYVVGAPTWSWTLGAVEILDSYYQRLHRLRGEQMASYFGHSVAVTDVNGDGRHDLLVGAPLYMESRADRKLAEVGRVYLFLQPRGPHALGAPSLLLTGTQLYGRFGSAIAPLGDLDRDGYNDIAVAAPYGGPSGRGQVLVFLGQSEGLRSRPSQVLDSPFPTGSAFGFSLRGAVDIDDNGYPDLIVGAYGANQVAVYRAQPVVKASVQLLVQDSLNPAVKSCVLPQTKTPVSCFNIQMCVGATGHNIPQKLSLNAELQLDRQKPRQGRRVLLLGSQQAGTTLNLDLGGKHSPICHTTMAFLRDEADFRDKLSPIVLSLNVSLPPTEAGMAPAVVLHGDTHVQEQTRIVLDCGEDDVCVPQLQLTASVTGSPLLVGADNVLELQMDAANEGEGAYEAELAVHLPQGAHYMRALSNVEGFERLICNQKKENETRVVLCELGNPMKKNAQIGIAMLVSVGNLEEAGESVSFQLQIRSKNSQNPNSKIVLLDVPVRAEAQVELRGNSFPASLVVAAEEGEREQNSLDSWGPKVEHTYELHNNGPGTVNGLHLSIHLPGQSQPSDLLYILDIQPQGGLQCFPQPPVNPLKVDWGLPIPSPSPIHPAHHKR
T2 sequence (P08514 891-1039 limits assumed): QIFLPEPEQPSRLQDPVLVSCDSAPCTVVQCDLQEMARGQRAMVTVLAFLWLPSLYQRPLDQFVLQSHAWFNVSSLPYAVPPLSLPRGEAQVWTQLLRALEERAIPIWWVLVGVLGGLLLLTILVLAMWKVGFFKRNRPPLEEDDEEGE
T2 sequence (P05106 27-788): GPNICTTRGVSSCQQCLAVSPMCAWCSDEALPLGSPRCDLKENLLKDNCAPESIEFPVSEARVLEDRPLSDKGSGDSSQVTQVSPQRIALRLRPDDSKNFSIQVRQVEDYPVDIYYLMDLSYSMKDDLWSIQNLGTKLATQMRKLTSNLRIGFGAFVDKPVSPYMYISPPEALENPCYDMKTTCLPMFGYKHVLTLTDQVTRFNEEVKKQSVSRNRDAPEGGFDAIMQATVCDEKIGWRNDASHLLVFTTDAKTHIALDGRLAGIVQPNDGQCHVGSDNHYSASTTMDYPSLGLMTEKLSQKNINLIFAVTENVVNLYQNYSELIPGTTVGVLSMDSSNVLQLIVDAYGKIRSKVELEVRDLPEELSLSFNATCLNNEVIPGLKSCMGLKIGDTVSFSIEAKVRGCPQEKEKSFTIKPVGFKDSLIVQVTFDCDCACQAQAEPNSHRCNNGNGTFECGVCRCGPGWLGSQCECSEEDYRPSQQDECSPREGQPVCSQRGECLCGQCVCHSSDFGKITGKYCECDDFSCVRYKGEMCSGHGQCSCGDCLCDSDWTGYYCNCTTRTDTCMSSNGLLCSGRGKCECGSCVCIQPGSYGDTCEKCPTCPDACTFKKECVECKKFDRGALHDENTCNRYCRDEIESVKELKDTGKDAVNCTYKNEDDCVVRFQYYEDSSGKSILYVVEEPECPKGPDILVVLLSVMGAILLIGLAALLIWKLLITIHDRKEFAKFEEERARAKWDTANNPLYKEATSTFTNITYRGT
In short: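 pA2 calculated by comparing ADP EC50-type (50% response) values in presence and absence of compound, averaged across concentrations (generally 10-^5 M to 10-^10 M). Aggregation (Born) induced by ADP in citrated human platelet-rich plasma, giving dose-response curves.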

[3] = read-out: Test (b): pIC50 (-log(IC50)), 50% inhibition of biotinylated fibrinogen binding to GPIIb/IIIa (converted)
[4] = read-out: Test (a): pA2 value indicating potency of platelet aggregation inhibition (converted)
[5] = Test (b): pIC50 (-log(IC50)), 50% inhibition of biotinylated fibrinogen binding to GPIIb/IIIa
[6] = Test (a): pA2 value indicating potency of platelet aggregation inhibition

T1 sequence (P08514 32-887 limits assumed): as the sequence (P08514 32-887 limits assumed) above
T1 sequence (P08514 891-1039 limits assumed): as the sequence (P08514 891-1039 limits assumed) above
T1 sequence (P05106 27-788): as the sequence (P05106 27-788) above

| Compound | IC50 [1, 3] | Kb [2, 4] | IC50 [1, 5] | Kb [2, 6] |
| --- | --- | --- | --- | --- |
| Cc1cc(N2CCN(CC(=O)c3ccc(OCC(=O)O)cc3)CC2)c2ccccc2n1 [Example 42, 4-[2-[4-(2-Methyl-4-quinolinyl)piperazin-1-yl]acetyl]phenoxyacetic acid] | 6310 nM | 50100 nM | – | – |
| COC(=O)COc1ccc(C(=O)CN2CCN(c3ccnc4ccccc34)CC2)cc1 [Example 43, Methyl 4-[2-[4-(4-quinolinyl)piperazin-1-yl]acetyl]phenoxyacetate] | 3160 nM | 39800 nM | – | – |
| O=C(O)COc1ccc(C(=O)CN2CCN(c3ccnc4ccccc34)CC2)cc1 [Example 44, 4-[2-[4-(4-Quinolinyl)piperazin-1-yl]acetyl]phenoxyacetic acid trifluoroacetate salt] | 100 nM | 10000 nM | – | – |
| COC(=O)COc1ccc(C(=O)CN2CCN(c3ccnc4c3CCCC4)CC2)cc1 [Example 45, Methyl 4-[2-[4-(5,6,7,8-tetrahydro-4-quinolinyl)piperazin-1-yl]-acetyl]phenoxyacetate] | 794 nM | 3980 nM | – | – |
| O=C(O)COc1ccc(C(=O)CN2CCN(c3ccnc4c3CCCC4)CC2)cc1 [Example 46, 4-[2-[4-(5,6,7,8-Tetrahydro-4-quinolinyl)piperazin-1-yl]acetyl]phenoxyacetic acid] | 25.1 nM | 1000 nM | – | – |
| COC(=O)COc1ccc(C(=O)CN2CCN(c3ccncn3)CC2)cc1 [Example 47, Methyl 4-[2-[4-(4-pyrimidinyl)piperazin-1-yl]acetyl]phenoxyacetate] | 39800 nM | 6310 nM | – | – |
| O=C(O)COc1ccc(C(=O)CN2CCN(c3ccncn3)CC2)cc1 [Example 48, 4-[2-[4-(4-Pyrimidinyl)piperazin-1-yl]acetyl]phenoxyacetic acid] | 251 nM | 10000 nM | – | – |
| O=C(O)COc1ccc2c(=O)c(N3CCN(c4ccncc4)CC3)cn(Cc3ccccc3)c2c1 [Example 49, [1-Benzyl-3-[4-(4-pyridyl)piperazin-1-yl]-4-quinolon-7-yl]oxyacetic acid trifluoroacetate salt] | 6.31 nM | 79.4 nM | – | – |
| CCOC(=O)CCCOc1ccc(N2CCN(c3ccncc3)CC2)cc1 [Example 50, Ethyl 4-[4-[4-(4-pyridyl)piperazin-1-yl]phenoxy]butyrate] | > 100000 nM | 794 to 1000 nM | – | – |
| O=C(O)CCCOc1ccc(N2CCN(c3ccncc3)CC2)cc1 [Example 51, 4-[4-[4-(4-Pyridyl)piperazin-1-yl]phenoxy]butyric acid] | 3.98 to 25.1 nM | 12.6 to 100 nM | – | – |
| CCOC(=O)CCCCOc1ccc(N2CCN(c3ccncc3)CC2)cc1 [Example 52] | > 100000 nM | 10000 nM | – | – |
| O=C(O)CCCCOc1ccc(N2CCN(c3ccncc3)CC2)cc1 [Example 53, 5-[4-[4-(4-Pyridyl)piperazin-1-yl]phenoxy]pentanoic acid] | 1260 nM | 1580 nM | – | – |
| CCOC(=O)C=CCOc1ccc(N2CCN(c3ccncc3)CC2)cc1 [Example 54, Ethyl 4-[4-(4-pyridyl)piperazin-1-yl]phenoxycrotonate] | > 100000 nM | 15800 nM | – | – |
| O=C(O)CC(NC(=O)c1cccc(CN2CCN(c3ccncc3)CC2)c1)c1ccccc1 (stereo not shown) [Example 55, 3-[3-[4-(4-Pyridyl)piperazin-1-ylmethyl]]benzamido-3-phenylpropionic acid] | 15800 nM | 31600 nM | – | – |
| COC(=O)CCNC(=O)c1ccc(N2CCN(c3ccncc3)CC2)cc1 [Example 56, Methyl 3-[4-[4-(4-pyridyl)piperazin-1-yl]]benzaminopropionate] | 15800 nM | 3160 nM | – | – |
| O=C(O)CCNC(=O)c1ccc(N2CCN(c3ccncc3)CC2)cc1 [Example 57, 3-[4-[4-(4-Pyridyl)piperazin-1-yl]]benzamidopropionic acid] | 25.1 nM | 25.1 nM | – | – |
| COC(=O)CC(NC(=O)c1ccc(N2CCN(c3ccncc3)CC2)cc1)c1ccccc1 (stereo not shown) [Example 58, Methyl 3-[4-[4-(4-pyridyl)piperazin-1-yl]benzamido]-3-phenylpropionate] | 39800 nM | 3160 nM | – | – |
| O=C(O)CC(NC(=O)c1ccc(N2CCN(c3ccncc3)CC2)cc1)c1ccccc1 (stereo not shown) [Example 59, 3-[4-[4-(4-Pyridy)piperazin-1-yl]benzamido]-3-phenylpropionic acid] | 31.6 nM | 63.1 nM | – | – |
| COC(=O)CC(C)NC(=O)c1ccc(N2CCN(c3ccncc3)CC2)cc1 (stereo not shown) [Example 60, Methyl 3-[4-[4-(4-pyridyl)piperazin-1-yl]benzamido]butyrate] | 15800 nM | 10000 nM | – | – |

| Compound | IC50 [1, 3] | Kb [2, 4] | IC50 [1, 5] | Kb [2, 6] |
| --- | --- | --- | --- | --- |
| COC(=O)COc1ccc(C(=O)CN2CCN(c3ccncc3)CC2=O)cc1 [Example 61, Methyl 4-[2-[4-(4-pyridyl)piperazin-2-one-1-yl]acetyl]phenoxyacetate] | 200 nM | 31.6 nM | – | – |
| O=C(O)COc1ccc(C(=O)CN2CCN(c3ccncc3)CC2=O)cc1 [Example 62, 4-[2-[4-(4-Pyridyl)piperazin-2-one-1-yl]acetyl]phenoxyacetic acid] | 7.94 nM | 2.51 to 12.6 nM | – | – |
| COC(=O)COc1ccc(NC(=O)N2CCN(c3ccncc3)CC2)cc1 [Example 63, Methyl 4-[[4-(4-pyridyl)piperazin-1-yl]carboxamido]phenoxy acetate] | 316 nM | 126 nM | – | – |
| O=C(O)COc1ccc(NC(=O)N2CCN(c3ccncc3)CC2)cc1 [Example 64, 4-[[4-(4-Pyridyl)piperazin-1-yl]carboxamido]phenoxyacetic acid] | 20 nM | 31.6 nM | – | – |
| CCn1cc(C(=O)O)c(=O)c2ccc(N3CCN(c4ccncc4)CC3)cc21 [Example 65, Ethyl-4-[4-(4-pyridyl)piperazin-1-yl]-4-quinolon-3-ylcarboxylic acid] | 2510 nM | 6310 nM | – | – |
| COC(=O)CCNC(=O)c1ccc(N2CCN(c3ccncc3)CC2)nc1 [Example 69, Methyl 3-[6-[4-(4-pyridyl)piperazin-1-yl]pyrid-3-ylcarboxamido]propionate] | 3980 nM | 12600 nM | – | – |
| O=C(O)CCNC(=O)c1ccc(N2CCN(c3ccncc3)CC2)nc1 [Example 70, 3-[6-[4-(4-Pyridyl)piperazin-1-yl]pyrid-3-ylcarboxamido]propionic acid] | 15.8 nM | 79.4 nM | – | – |
| O=C(O)COc1ccc2nccc(N3CCN(c4ccncc4)CC3)c2c1 [Example 71, 4-[[4-(4-Pyridyl)piperazin-1-yl]quinolin-6-yl]oxyacetic acid] | 39800 nM | 12600 nM | – | – |
| O=C(O)COc1ccc2nc(N3CCN(c4ccncc4)CC3)ccc2c1 [Example 73, 2-[4-(4-Pyridyl)piperazin-1-yl]quinolin-6-yloxyacetic acid] | 63.1 nM | 501 nM | – | – |
| O=C(O)CCNC(=O)c1cccc(N2CCN(c3ccncc3)CC2)n1 [Example 74, 3-[6-[4-(4-Pyridyl)piperazin-1-yl]pyrid-2-yl]carboxamidopropionic acid] | 2000 nM | 10000 nM | – | – |
| CN(Cc1ccc(-c2ccc(OCC(=O)O)cc2)cc1)c1ccncc1 [Example 75, 4-[4'-[N-Methyl-N-(4-pyridyl)]aminomethyl]biphenyloxyacetic acid] | 3980 nM | 31600 nM | – | – |
| O=C(O)COc1ccc2c(CN3CCN(c4ccncc4)CC3)cccc2c1 [Example 76, 5-[[4-(4-Pyridyl)piperazin-1-yl]methylene]naphth-2-yloxyacetic acid] | 1260 nM | 31600 nM | – | – |
| O=C(O)C=Cc1ccc(CN2CCN(c3ccncc3)CC2)cc1 [Example 77, 4-[[4-(4-Pyridyl)piperazin-1-yl]methylene]cinnamic acid] | 501 nM | 7940 nM | – | – |
| COC(=O)COc1ccc(C(=O)C(C)N2CCN(c3ccncc3)CC2)cc1OCC(=O)OC (stereo not shown) [Example 78] | 251 nM | 158 nM | – | – |
| CC(C(=O)c1ccc(OCC(=O)O)c(OCC(=O)O)c1)N1CCN(c2ccncc2)CC1 (stereo not shown) [Example 79, 4-[2-[(4-Pyridyl)piperazin-1-yl]-2-methyl]acetyl-1,2-diphenoxydiacetic acid] | – | – | 3.16 nM | 12.6 nM |
| COC(=O)COc1ccc2c(c1)CCC(N1CCN(c3ccncc3)CC1)C2=O (stereo not shown) [Example 80, Methyl 2-[4-(4-pyridyl)piperazin-1-yl]tetralone-6-oxyacetate] | – | – | 398 nM | 251 nM |
| CCCCS(=O)(=O)N[C@@H](Cc1ccc(OCCCC2CCN(c3ccncc3)CC2)cc1)C(=O)OC [Example 81, Methyl 2-S-(n-butylsulphonylamino)-3-[4-[3-[1-(4-pyridyl)piperidin-4-yl]propoxy]phenyl]propionate] | 200 nM | 15800 nM | – | – |
| CCCCS(=O)(=O)N[C@@H](Cc1ccc(OCCCC2CCN(c3ccncc3)CC2)cc1)C(=O)O [Example 82, 2-S-(n-Butylsulphonylamino)-3-[4-[3-[1-(4-pyridyl)piperidin-4-yl]propoxy]phenyl]propionic acid] | 12.6 nM | 501 nM | – | – |
| CCCCS(=O)(=O)N[C@@H](Cc1ccc(OCCCCC2CCN(c3ccncc3)CC2)cc1)C(=O)OC [Example 83, Methyl 2-S-(butylsulphonylamino)-3-[4-[4-[1-(4-pyridyl)piperidin-4-yl]-butoxy]phenyl]propionate] | 2000 nM | 39800 nM | – | – |

Source: patent publication US5750754A, “Heterocyclic compounds” (Zeneca Limited, priority 1993, dated 1998)
